These results are taken from patent US20240091303A1, “BIOMARKER-BASED TREATMENT OF FOCAL SEGMENTAL GLOMERULOSCLEROSIS AND DIABETIC KIDNEY DISEASE” (Goldfinch Bio, Inc., priority 2019, published 2024).

Structures are written as SMILES.

Series [1] relates to Rac1 protein in the urine. The series can be described thus: Urinary Rac1 analysis in naive rats following treatment with Compound 1. The format is in vivo, Sprague Dawley rats. The following applies: 10 mg/kg oral gavage once daily for 7 days. As for the experimental part: The aim of this study was to measure the amount of Rac1 protein in the urine of healthy rats treated with Compound 1.
Six to seven weeks old Sprague Dawley rats were placed in metabolic cage housing for urine collection. Following two 24-hour periods of pre-dose urine collection, received one daily dose of Compound 1 administered by oral gavage at 10 mg/kg for 7 days; control animals were administered vehicle. Urine was collected for 24-hour periods beginning on the day of dosing inception and on days 3 and 6 of dosing.
Urine samples were concentrated as follows: 20 mL of urine was spun at 1500×g for 5 min to remove cell debris. Samples were concentrated using a Pierce protein concentrator with 10 kDa MWCO (Cat# 88516, Thermo Scientific, USA) and spun at 6000×g for 30 min at 4° C. using rotor JA 14.50 (Beckman Coulter, USA) in an AVANTI-JE centrifuge, (Beckman Coulter). A second centrifugation at 6000×g for 30 min at 4° C. was performed for samples that were concentrated to a volume that was >1 mL, to achieve a volume of <1 mL for all samples. The concentrated urine was collected and stored in −80° C. Next, the samples were analyzed for urinary Rac1 by ELISA (Cat# abx253084, Abbexa Ltd, UK) and urinary creatinine by ELISA (Cat# ab65340, Abcam, USA) following standard procedures according to the manufacturer's instructions. […]

Series [2] has as its system Rac1 protein in the urine. The series can be described thus: Urinary Rac1 analysis in DOCA-salt hypertensive rats following treatment with Compound 1. The format is in vivo, Sprague Dawley rats. The text has this: The aim of this study was to measure the amount of Rac1 protein in the urine of DOCA-salt hypertensive rats treated with Compound 1.
(§1) The DOCA-salt hypertensive rat model is a well-established model of mineralocorticoid hypertension with renal dysfunction leading to an FSGS phenotype, characterized by increased levels of urinary protein and albumin excretion. [Schenk et al., “The pathogenesis of DOCA-salt hypertension,” J. Pharmacol. Toxicol. Methods (May 1992) 27 (3):161-170; Gomez-Sanchez et al., “Mineralocorticoids, salt and high blood pressure,” Steroids (1996) 61:184-188.]
Six to seven weeks old Sprague Dawley rats were unilaterally nephrectomized. After one-week recovery, rats were implanted with a DOCA pellet (45 mg) and provided tap water containing 0.9% NaCl and 0.2% KCl (Day 1) for a 4 weeks treatment. […] Body weight was recorded daily throughout the study. […] Urine was collected for 24-hour periods beginning on day 17, day 20, day 24 and day 27, and urine protein and albumin were measured using standard methods.
For Rac1 analysis, urine samples were concentrated as follows: 20 mL of urine was spun at 1500×g for 5 min to remove cell debris. […] Next, the samples were analyzed for urinary Rac1 by ELISA (Cat# abx253084, Abbexa Ltd, UK) and urinary creatinine by ELISA (Cat# ab65340, Abcam, USA) following standard procedures according to the manufacturer's instructions. […]

Series [3] deals with Rac1 protein in the urine. The series can be described thus: Urinary Rac1 analysis in healthy human subjects following treatment with Compound 1 (Phase 1, NCT03970122). The format is in vivo. The procedure: The aim of this study was to measure the amount of Rac1 protein in the urine of healthy human subjects treated with Compound 1.
Healthy human subjects enrolled in a Phase 1 clinical study, “A First-In-Human, Phase 1, Placebo-Controlled Study to Evaluate the Safety, Tolerability, and Pharmacokinetics of Compound 1, a TRPC5 Channel Inhibitor, in Healthy Subjects and Subjects With Renal Impairment,” (NCT03970122) were administered a single, oral dose of either a placebo or 20 mg Compound 1 as a tablet. A urine sample was collected prior to administration of drug, and urine pools were then collected from 0-4 hours, 4-8 hours, 8-12 hours, 12-24 hours, 24-48 hours and 48-72 hours after dosing.
For Rac1 analysis, urine samples were concentrated as follows: 20 mL of urine was spun at 1500×g for 5 min to remove cell debris. Samples were concentrated using a Pierce protein concentrator with 10 kDa MWCO (Cat# 88516, Thermo Scientific, USA) and spun at 6000×g for 30 min at 4° C. using rotor JA 14.50 (Beckman Coulter, USA) in an AVANTI-JE centrifuge, (Beckman Coulter). A second centrifugation at 6000×g for 30 min at 4° C. was performed for samples that were concentrated to a volume that was >1 mL, to achieve a volume of <1 mL for all samples. The concentrated urine was collected and stored in −80° C. Next, the samples were analyzed for urinary Rac1 by ELISA (Cat# abx253084, Abbexa Ltd, UK) and urinary creatinine by ELISA (Cat# ab65340, Abcam, USA) following standard procedures according to the manufacturer's instructions. The amount of Rac1 in the urine was normalized to the amount of creatinine in the urine to control for the volume of urine produced.
Additional data was obtained from human subjects that were administered a single, oral dose of either a placebo, 5 mg of Compound 1 as a liquid suspension or 20, 40 or 80 mg of Compound 1 as tablets. A urine sample was collected prior to administration of drug, and urine pools were then collected from 0-4 hours, 4-8 hours, 8-12 hours, 12-24 hours, and for each 24 hour period from day 2 through day 7 after dosing. Each dose level comprised 2 placebo and 8 treated subjects.

The test system of a further series is ZDSD rats. The series can be described thus: ZDSD model of diabetic nephropathy, albuminuria. The format is in vivo, rat. The text has this:
The aim of this study was to evaluate the effects of the TRCPS inhibitor, Compound 1, to attenuate the development and/or progression of albuminuria in ZDSD model of diabetic nephropathy (DN).
The ZDSD model is an established model which recapitulates the major features of diabetes including impaired glucose metabolism, neuropathy, retinopathy and nephropathy [Peterson et al., “Characterization of the ZDSD Rat: A Translational Model for the Study of Metabolic Syndrome and Type 2 Diabetes,” J. Diabetes. Res. (2015), Article ID 487816, 10 pages; Peterson et aL, “The ZDSD rat: a novel model of diabetic nephropathy,” Am. J. Transl. Res. (2017) 9: 4236-4249].
Male ZDSD rats (Crown Bioscience, Indianapolis, IN., n=79) were maintained on standard rodent chow (Purina 5008) from weaning to 15 weeks of age. A diabetogenic diet (Research Diet D124668) was initiated and maintained for three weeks to synchronize development of hyperglycemia. Diabetogenic diet was replaced with Purina 5008 for remainder of the study. Animals were housed two per cage and maintained on a 12 hour light cycle (0600-1800). Room temperature was monitored daily and maintained at 70-74° F. Food and water were provided ad libitum for duration of the study. […]
Body weight was recorded weekly. Food consumption was recorded weekly during the treatment phase from week 0 through 12. […]

Series [4] deals with DOCA-salt hypertensive rats. The series can be described thus: Effects of Compound 1 in DOCA-salt hypertensive rats (albuminuria). To be noted: for urinary albumin excretion: week 2 to week 4, FIG. 7. The format is in vivo, Sprague Dawley rats.
Description: The aim of this study was to evaluate the effects of the TRCPS inhibitor, Compound 1, to attenuate the development and/or progression of albuminuria in deoxycorticosterone acetate (DOCA)-salt hypertensive rats.
as §1
Six to seven weeks old Sprague Dawley rats were unilaterally nephrectomized; after one-week recovery, rats were implanted with a DOCA pellet (45 mg) and provided tap water containing 0.9% NaCl and 0.2% KCl (Day 1) for a 4 weeks treatment. On Day 1, DOCA-salt rats received one daily dose of Compound 1 administered by oral gavage at 3 mg/kg or 10 mg/kg for 4 weeks; control animals for DOCA treatment were administered vehicle. Sham animals, implanted with a silicone-water pellet, were given tap water and received oral administration of the vehicle. Body weight was recorded daily and proteinuria, albuminuria and arterial blood pressure were recorded every week.

A further series relates to COL4A4 knockout mice. The series can be described thus: Effects of Compound 1 in COL4A4 knockout mice (Alport model). The format is in vivo, mouse. To be noted: 3 mg/kg or 10 mg/kg oral gavage once daily for 4 weeks, FIG. 8. An excerpt:
The aim of this study was to evaluate the effects of the TRCPS inhibitor, Compound 1, to attenuate the development and/or progression of albuminuria in […] knockout mice.
The COL4A4 knockout mouse model is a well-established model of Alport disease, characterized by increased levels of urinary protein and albumin excretion. [Korstanje et al., “A mouse Col4a4 mutation causing Alport glomerulosclerosis with abnormal collagen α3α4α5(IV) trimers,” Kidney Int. (2014) 85:1461-1468].
Four to five weeks old COL4A4 knockout mice were received one daily dose of Compound 1 administered by oral gavage at 3 mg/kg or 10 mg/kg for 4 weeks; control animals were administered vehicle. Body weight was recorded daily and urinary protein and creatinine were recorded every week, and the ratio of urine protein to creatinine (UPCR) was calculated.

The test system of series [5] is DOCA-salt hypertensive rats. The series can be described thus: Effects of Compound 3 in DOCA-salt hypertensive rats (albuminuria), eplerenone control. The format is in vivo, Sprague Dawley rats.
Description: The aim of this study was to evaluate the effects of the TRCPS inhibitor, Compound 3, to attenuate the development and/or progression of albuminuria in deoxycorticosterone acetate (DOCA)-salt hypertensive rats.
Six to seven weeks old Sprague Dawley rats were unilaterally nephrectomized; after one-week recovery, rats were implanted with a DOCA pellet (45 mg) and provided tap water containing 0.9% NaCl and 0.2% KCl (Day 1) for a 4 weeks treatment. On Day 1, DOCA-salt rats received one daily dose of Compound 3 administered by oral gavage at 30 mg/kg for 4 weeks; control animals for DOCA treatment were administered vehicle or the mineralocorticoid receptor antagonist (MCRA) eplerenone by twice-daily oral gavage at 50 mg/kg. Sham animals, implanted with a silicone-water pellet, were given tap water and received SC administration of the vehicle. Body weight was recorded daily and proteinuria, albuminuria and arterial blood pressure were recorded every week.
Series [6] concerns DOCA-salt hypertensive rats. The series can be described thus: Effects of cyclosporine A and tacrolimus in DOCA-salt hypertensive rats (albuminuria). The format is in vivo, Sprague Dawley rats. Set-up: urinary albumin excretion: dose or concentration left out as unconfirmed. As for the experimental part: The DOCA-salt hypertensive rat model is a well-established model of mineralocorticoid hypertension with renal dysfunction leading to an FSGS phenotype, characterized by increased levels of urinary protein and albumin excretion. [Schenk et al., “The pathogenesis of DOCA-salt hypertension,” J. Pharmacol. Toxicol.
Six to seven weeks old Sprague Dawley rats were unilaterally nephrectomized; after one-week recovery, rats were implanted with a DOCA pellet (45 mg) and provided tap water containing 0.9% NaCl and 0.2% KCl (Day 1) for a 3 weeks treatment. […] Sham animals, implanted with a silicone-water pellet, were given tap water and received administration of the vehicle. Proteinuria and albuminuria were recorded every week, and body weight was recorded daily.

Consider `O=c1[nH]ncc(N2CCc3c(ncnc3Oc3ccc(F)cc3C(F)(F)F)C2)c1Cl` [Compound 1], for which the adverse effects result in series [1] is “No adverse effects were observed”; in series [2] (10 mg/kg oral gavage once daily for 7 days from day 21) it was “No adverse effects were observed”; in series [4] (DOCA-salt rats, 3 or 10 mg/kg oral gavage once daily for 4 weeks) it was “No adverse effects were observed”. Further, the “urinary Rac1 levels (Rac1 normalized to creatinine)” value is “reduced urinary Rac1 levels” in series [1] (vs pre-dose levels, significance at day 4 (p<0.01), FIG. 2); “reduced urinary Rac1 levels” in series [2] (10 mg/kg oral gavage once daily for 7 days from day 21, vs pre-dose levels, significance day 25 (p<0.01), FIG. 3); “reduced urinary Rac1 levels” in series [3] (healthy humans, single oral 20 mg tablet, vs pre-dose, significance by 8-12 hours after dosing (p<0.05), FIG. 4). Besides, the “time urinary Rac1 levels remained reduced” value in series [3] (humans, single 40 mg oral dose) was “up to 4 days”; in series [3] (humans, single 80 mg oral dose), “at least 7 days”. Moreover, the “urinary Rac1 levels” value in series [3] (humans, single oral dose 5 mg suspension or 20, 40, 80 mg tablets, significance by 8-12 hours with 40 mg and 80 mg doses vs pre-dose (p<0.05), FIG. 4B) is on record as “reduced urinary Rac1 levels”. Further, the body weight entry in the series on ZDSD rats (3 mg/kg and 10 mg/kg oral gavage daily for 12 weeks, vs vehicle group, last two weeks of study) was “increase in body weight”; in series [4] (DOCA vs DOCA and Compound 1, 3 or 10 mg/kg oral daily 4 weeks), “no significant difference”. Also, the urinary albumin excretion result in the series with ZDSD rats (3 or 10 mg/kg/d oral gavage 12 weeks, week 6 to week 12, significance at weeks 10 to 12 vs vehicle (p<0.001), FIG. 6) is listed as “attenuated urinary albumin excretion”; in series [4] (3 mg/kg oral daily, significant at week 3 vs DOCA-vehicle (p<0.05)) it was “attenuated urinary albumin excretion”; in series [4] (10 mg/kg oral daily, vs DOCA-vehicle, p<0.05 week 2, p<0.001 weeks 3 and 4), “attenuated urinary albumin excretion”. The “urinary protein to creatinine ratio (UPCR)” value with COL4A4 knockout mice is “no effect”.
Consider `COC(=O)[C@@H]1CC2=CC(=O)CC[C@]2(C)[C@@]23O[C@@H]2C[C@@]2(C)[C@@H](CC[C@@]24CCC(=O)O4)[C@H]13` [eplerenone], for which the body weight entry in series [5] (DOCA vs DOCA plus Compound 3 (30 mg/kg oral daily) or eplerenone (50 mg/kg oral twice daily)) was “no significant difference”. For the same compound, the urinary albumin excretion entry in series [5] (eplerenone 50 mg/kg twice-daily oral gavage, week 4 vs DOCA-vehicle (p<0.05), FIG. 10) was “significantly attenuated urinary albumin excretion”.
As to `C=CC[C@@H]1/C=C(\C)C[C@H](C)C[C@H](OC)[C@H]2O[C@@](O)(C(=O)C(=O)N3CCCC[C@H]3C(=O)O[C@H](/C(C)=C/[C@@H]3CC[C@@H](O)[C@H](OC)C3)[C@H](C)[C@@H](O)CC1=O)[C@H](C)C[C@@H]2OC` [tacrolimus, Tacrolimus], in series [6] (DOCA and tacrolimus 0.3 mg/kg oral gavage daily, first two weeks), the body weight entry was “significant loss of body weight”. Moreover, the urinary albumin excretion entry in series [6] (tacrolimus 0.3/0.1 oral daily, weeks 2 and 3 vs DOCA-vehicle (p<0.05), FIG. 12) is given as “significantly attenuated urinary albumin excretion”. In series [6] (tacrolimus dose adjusted from 0.3 mg/kg down to 0.1 mg/kg after two weeks of dosing), the “body weight after dose adjustment” value was “reversed the weight loss”.
